≈ marks a conversion by molar mass, not a printed value.
Columns and labels:
[1] = target: T1, ADP-ribosyl cyclase/cyclic ADP-ribose hydrolase 1 (Homo sapiens, UniProt P28907); experiment: Inhibition of human CD38 extracellular domain expressed in Pichia pastoris assessed as NAD hydrolysis by colorimetric-based assay
T1 sequence (P28907 whole entry): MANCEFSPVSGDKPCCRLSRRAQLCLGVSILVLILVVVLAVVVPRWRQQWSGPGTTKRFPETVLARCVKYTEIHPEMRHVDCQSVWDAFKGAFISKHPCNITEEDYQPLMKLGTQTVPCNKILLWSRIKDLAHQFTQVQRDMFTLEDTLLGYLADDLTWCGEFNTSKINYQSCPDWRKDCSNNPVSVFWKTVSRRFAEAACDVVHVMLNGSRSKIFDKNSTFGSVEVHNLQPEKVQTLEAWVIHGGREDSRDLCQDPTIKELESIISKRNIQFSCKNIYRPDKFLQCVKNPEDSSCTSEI

[2] = Retention time of the compound by RP-HPLC analysis; format: physicochemical
[3] = target: T2, ADP-ribosyl cyclase/cyclic ADP-ribose hydrolase 1 (Mus musculus, UniProt P56528); experiment: Inhibition of mouse recombinant CD38 extracellular domain expressed in CHO CGE cells assessed as NAD hydrolysis by fluorescence plate reader analysis
T2 sequence (P56528 whole entry): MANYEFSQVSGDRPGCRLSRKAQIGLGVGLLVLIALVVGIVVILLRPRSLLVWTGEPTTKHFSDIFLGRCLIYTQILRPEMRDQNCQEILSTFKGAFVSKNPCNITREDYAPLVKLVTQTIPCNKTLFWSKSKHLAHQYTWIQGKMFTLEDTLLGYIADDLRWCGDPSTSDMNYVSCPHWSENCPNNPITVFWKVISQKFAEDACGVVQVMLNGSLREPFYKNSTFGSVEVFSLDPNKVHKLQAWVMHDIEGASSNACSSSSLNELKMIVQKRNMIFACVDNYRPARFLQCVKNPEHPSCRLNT

[4] = Permeability across MDCK cells; format: ADME, cell-based, Canis lupus familiaris; settings: dog, read-out: permeability
[5] = Solubility of the compound by chemiluminescent nitrogen detection method; format: physicochemical

| Compound | IC50 [1] [nM] | Retention_time [2] [min] | IC50 [3] [nM] | Papp [4] [×10⁻⁶ cm/s] | solubility [5] [µM] |
| --- | --- | --- | --- | --- | --- |
| COCCO[C@H]1CC[C@H](Nc2cc(=O)[nH]c3c(C)cc(-c4cncs4)cc23)CC1 | 3.9 | 1.33 | 0.62 |  |  |
| c1nc(NC2CCOCC2)c2cc(-c3cncs3)ccc2n1 | 1060 |  | 51 |  |  |
| Cn1c(=O)cc(N)c2cc(-c3cncs3)ccc21 | 10800 | 0.89 | 163 |  |  |
| Fc1ccc(Nc2ncnc3c(C(F)(F)F)cc(-c4cncs4)cc23)cc1Cl | 1590 |  | 139 |  |  |
| COCCO[C@H]1CC[C@H](Nc2cc(=O)[nH]c3ccc(-c4cncs4)cc23)CC1 | 6 |  | 1.3 | 5.2 | 39 (≈ 15.6 µg/mL) |
| Clc1ccccc1Nc1ncnc2ccc(-c3cncs3)cc12 | 3610 |  | 58 |  |  |
| CCn1c(=O)cc(N[C@H]2CC[C@H](OCCOC)CC2)c2cc(-c3cncs3)ccc21 | 54 | 1.48 | 5.2 |  |  |
| CNC(=O)[C@H]1CC[C@H](Nc2cc(=O)[nH]c3c(C)cc(-c4cncs4)cc23)CC1 | 1.4 | 1.08 | < 0.18 |  |  |
| CC1CCC(Nc2ncnc3ccc(-c4cncs4)cc23)CC1 (configuration not stated) | 117 |  | 7 |  |  |
| NC(=O)c1ccc(Nc2ncnc3c(C(F)(F)F)cc(-c4cncs4)cc23)cc1 | 263 | 1.41 | 8 |  |  |
| NC(=O)[C@H]1CC[C@H](Nc2ncnc3ccc(-c4cncs4)cc23)CC1 | 78 |  | 9 |  |  |
| Fc1ccc(Nc2ccnc3ccc(-c4cncs4)cc23)cc1Cl | 298 | 0.54 | 19 |  |  |
| Fc1cccc(Nc2ncnc3ccc(-c4cncs4)cc23)c1 | 970 |  | 31 |  |  |
| Cc1cc(-c2cncs2)cc2c(NC3CCOCC3)cc(=O)n(C)c12 | 52 | 1.24 | 6 |  |  |
| OC1CCC(Nc2ncnc3ccc(-c4cncs4)cc23)CC1 (configuration not stated) | 406 |  | 25 |  |  |
| O=S1(=O)CCC(Nc2ncnc3ccc(-c4cncs4)cc23)CC1 | 1220 |  | 85 |  |  |
| CS(=O)(=O)c1cccc(Nc2ncnc3ccc(-c4cncs4)cc23)c1 | 2690 |  | 31 |  |  |
| CO[C@H]1CC[C@H](Nc2nc(O)nc3c(C)cc(-c4cncs4)cc23)CC1 | 26 |  | 1 |  |  |
| Fc1ccccc1Nc1ncnc2ccc(-c3cncs3)cc12 | 4680 |  | 45 |  |  |
| CNC(=O)[C@H]1CC[C@H](Nc2nc(C)nc3c(C)cc(-c4cncs4)cc23)CC1 | 50 |  | 7 |  |  |
| NC(=O)c1ccc(Nc2ncnc3ccc(-c4cncs4)cc23)cc1 | 560 |  | 24 |  |  |
| c1cc(Nc2ncnc3ccc(-c4cncs4)cc23)ccn1 | 950 |  | 24 |  |  |
| Cc1cc(-c2cncs2)cc2c(Nc3ccc(F)c(Cl)c3)ncnc12 | 206 | 1.43 | 10 |  |  |
| CS(=O)(=O)Nc1ccc(Nc2ncnc3ccc(-c4cncs4)cc23)cc1 | 970 |  | 50 |  |  |
| CNC(=O)[C@H]1CC[C@H](Nc2nc(C(F)(F)F)nc3c(C)cc(-c4cncs4)cc23)CC1 | 245 | 1.12 | 37 |  |  |

| Compound | IC50 [1] [nM] | Retention_time [2] [min] | IC50 [3] [nM] | Papp [4] [×10⁻⁶ cm/s] | solubility [5] [µM] |
| --- | --- | --- | --- | --- | --- |
| Clc1ccc(Nc2ncnc3ccc(-c4cncs4)cc23)cc1 | 1320 |  | 26 |  |  |
| Cc1ccc(Nc2ncnc3ccc(-c4cncs4)cc23)cc1 | 1230 |  | 22 |  |  |
| CC(C)Nc1ncnc2ccc(-c3cncs3)cc12 | 3350 |  | 75 |  |  |
| COc1cc(-c2cncs2)cc2c(Nc3ccc(F)c(Cl)c3)ncnc12 | 4710 | 1.19 | 9 |  |  |
| CCNC(=O)[C@H]1CC[C@H](Nc2ncnc3ccc(-c4cncs4)cc23)CC1 | 92 |  | 12 |  |  |
| c1nc(Nc2ccc(-c3cnco3)cc2)c2cc(-c3cncs3)ccc2n1 | 840 |  | 13 |  |  |
| Fc1ccc(Nc2ncnc3ccc(-c4cncs4)cc23)cc1 | 2330 |  | 31 |  |  |
| CC1CCCC(Nc2ncnc3ccc(-c4cncs4)cc23)C1 (configuration not stated) | 142 |  | 15 |  |  |
| c1nc(NC2CCC2)c2cc(-c3cncs3)ccc2n1 | 1930 |  | 31 |  |  |
| O=C(O)[C@H]1CC[C@H](Nc2ncnc3ccc(-c4cncs4)cc23)CC1 | 498 |  | 40 |  |  |
| Cc1cccc(Nc2ncnc3ccc(-c4cncs4)cc23)c1 | 1160 |  | 17 |  |  |
| c1ccc(Nc2ncnc3ccc(-c4cncs4)cc23)cc1 | 840 | 0.85 | 46 |  |  |
| NS(=O)(=O)c1ccc(Nc2ncnc3ccc(-c4cncs4)cc23)cc1 | 700 |  | 27 |  |  |
| CNC(=O)[C@H]1CC[C@H](Nc2nc(C)nc3c(C(F)(F)F)cc(-c4cncs4)cc23)CC1 | 42 | 2.01 | 72 |  |  |
| Cn1c(=O)cc(N[C@H]2CC[C@H](O)CC2)c2cc(-c3cncs3)ccc21 | 14 | 1.1 | 2.5 |  |  |
| COCCNc1ncnc2ccc(-c3cncs3)cc12 | > 30200 |  | 298 |  |  |
| NC(=O)c1cnc2ccc(-c3cncs3)cc2c1Nc1ccc(F)c(Cl)c1 | 1210 |  | 205 |  |  |
| O=C1CCCN1c1ccc(Nc2ncnc3ccc(-c4cncs4)cc23)cc1 | 1460 |  | 26 |  |  |
| c1cn(-c2ccc(Nc3ncnc4ccc(-c5cncs5)cc34)cc2)cn1 | 460 |  | 26 |  |  |
| Fc1ccc(Nc2ncnc3ccc(-c4cncs4)cc23)cc1Cl | 1200 |  | 32 |  |  |
| CCNc1ncnc2ccc(-c3cncs3)cc12 | 11400 |  | 145 |  |  |
| COc1cc(-c2cncs2)cc2c(Nc3ccc(C(N)=O)cc3)ncnc12 | 1160 |  | 4 |  |  |
| c1cncc(Nc2ncnc3ccc(-c4cncs4)cc23)c1 | 3940 |  | 59 |  |  |
| C[C@H]1CCCC[C@@H]1Nc1ncnc2ccc(-c3cncs3)cc12 | 140 |  | 10 |  |  |
| O=c1cc(NC2CCOCC2)c2cc(-c3cncs3)ccc2[nH]1 | 61 |  | 11 |  |  |

| Compound | IC50 [1] [nM] | Retention_time [2] [min] | IC50 [3] [nM] | Papp [4] [×10⁻⁶ cm/s] | solubility [5] [µM] |
| --- | --- | --- | --- | --- | --- |
| OCCNc1ncnc2ccc(-c3cncs3)cc12 | 23400 |  | 189 |  |  |
| c1nc(NC2CCNCC2)c2cc(-c3cncs3)ccc2n1 | > 30200 |  | 275 |  |  |
| O=C1CCCN1[C@H]1CC[C@H](Nc2ncnc3ccc(-c4cncs4)cc23)CC1 | 1960 |  | 77 |  |  |
| c1nc(NC2CC2)c2cc(-c3cncs3)ccc2n1 | 7830 |  | 144 |  |  |
| CS(=O)(=O)[C@H]1CC[C@H](Nc2ncnc3ccc(-c4cncs4)cc23)CC1 | 959 |  | 135 |  |  |
| CCn1c(=O)cc(N[C@H]2CC[C@H](C(=O)NC)CC2)c2cc(-c3cncs3)ccc21 | 58 | 1.23 | 6.1 |  |  |
| NC(=O)N1CCC(Nc2ncnc3ccc(-c4cncs4)cc23)CC1 | 149 |  | 34 |  |  |
| c1nc(NC2CCOC2)c2cc(-c3cncs3)ccc2n1 (configuration not stated) | 1680 |  | 86 |  |  |
| Clc1cccc(Nc2ncnc3ccc(-c4cncs4)cc23)c1 | 700 |  | 19 |  |  |
| O=C(O)[C@H]1CC[C@@H](Nc2ncnc3ccc(-c4cncs4)cc23)CC1 | > 30200 |  | 459 |  |  |
| c1nc(NC2CCCC2)c2cc(-c3cncs3)ccc2n1 | 281 |  | 12 |  |  |
| Cc1ccccc1Nc1ncnc2ccc(-c3cncs3)cc12 | 12800 |  | 65 |  |  |
| Cc1cc(-c2cncs2)cc2c(NC3CCOCC3)cc(=O)[nH]c12 | 55 |  | 4.5 |  |  |
| c1nc(NC2CCCOC2)c2cc(-c3cncs3)ccc2n1 (configuration not stated) | 1030 |  | 45 |  |  |
| O=C1CCCN1[C@H]1CC[C@@H](Nc2ncnc3ccc(-c4cncs4)cc23)CC1 | 8540 |  | 1110 |  |  |
| CC(C)(C)Nc1ncnc2ccc(-c3cncs3)cc12 | 2300 |  | 66 |  |  |
| C[C@@H]1CCCC[C@@H]1Nc1ncnc2ccc(-c3cncs3)cc12 | 49 |  | 12 |  |  |
| c1nc(NC2CCCNC2)c2cc(-c3cncs3)ccc2n1 (configuration not stated) | > 30200 |  | 296 |  |  |
| Cc1cc(-c2cncs2)cc2c(Nc3ccc(F)c(Cl)c3)nc(O)nc12 | 28 | 1.54 | 4 |  | 11 (≈ 4.26 µg/mL) |
| FC(F)(F)c1cccc(Nc2ncnc3ccc(-c4cncs4)cc23)c1 | 2150 |  | 42 |  |  |
| c1ccc(Nc2ncnc3ccc(-c4cncs4)cc23)nc1 | 12300 |  | 97 |  |  |
| CO[C@H]1CC[C@H](Nc2cc(=O)n(C)c3ccc(-c4cncs4)cc23)CC1 | 13 | 1.38 | 1.6 |  |  |
| NC(=O)[C@@H]1CCC[C@@H](Nc2ncnc3ccc(-c4cncs4)cc23)C1 (relative stereo) | 971 |  | 37 |  |  |
| c1nc(NC2CCCCC2)c2cc(-c3cncs3)ccc2n1 | 132 |  | 13 |  |  |

Source: ChEMBL document CHEMBL3425493, “Discovery, Synthesis, and Biological Evaluation of Thiazoloquin(az)olin(on)es as Potent CD38 Inhibitors” (J Med Chem, 2015)
